From publication PMC4875962 (Clinical Pharmacokinetics, 2015)
Entries after “also recorded” stand apart in the source; their conditions may differ. Like-named read-outs stand apart in the source and are kept apart here. Marks after values point to notes of the source that are not given here.

Assays:
[1] = cited from earlier work; for dose–exposure relationship: oral doses 10–180 mg
[2] = cited from earlier work
[3] = pH range of 3–7, decreases with increasing pH; cited from earlier work
Caco-2 cells = details: cited from earlier work
P-glycoprotein (P-gp) = details: Caco-2 cell monolayers; cited from earlier work
OATP1B1 [4] = details: cited from earlier work
OAT1 = details: cited from earlier work
OCT2 [5] = details: cited from earlier work
CYPs = details: read-out: IC50, inhibitory effect on CYPs; cited from earlier work
P-gp = details: read-out: IC50, inhibitory effect on P-gp; cited from earlier work
OATP1B1 [6] = details: read-out: IC50, inhibitory effect on OATP1B1; cited from earlier work
OCT2 [7] = details: read-out: IC50, inhibitory effect on OCT2; cited from earlier work
[8] = 60 mg of [14C]-edoxaban, cited from earlier work
[9] = cited from earlier work; remark: listed apart in the source
[10] = cited from earlier work; remark: listed apart in the source
[11] = single dose, vs matched healthy controls; cited from earlier work
[12] = tested on: PT, INR, aPTT, intrinsic FX activity, thrombin generation, anti-FXa; details: cited from earlier work
[13] = tested on: plasma anti-FXa activity, PT, aPTT; details: cited from earlier work
[14] = tested on: ex vivo thrombus formation; details: single 60 mg dose, healthy subjects; cited from earlier work
[15] = 60 mg twice daily, elderly healthy subjects; cited from earlier work
[16] = cited from earlier work; remark: listed apart in the source
[17] = cited from earlier work; remark: listed apart in the source
[18] = cited from earlier work; remark: listed apart in the source
[19] = cited from earlier work; remark: listed apart in the source
[20] = cited from earlier work; remark: listed apart in the source
CYP1A2 = assay: Induction of gene expression in human hepatocytes; details: data on file
CYP3A4 = assay: Induction of gene expression in human hepatocytes; details: data on file
[21] = tested on: multidrug resistance protein 1 (MDR1; P-gp); assay: Induction of gene expression in human hepatocytes; details: data on file
[22] = Drug-drug interaction studies: effect on edoxaban pharmacokinetics; details: coadministration of high-dose aspirin (325 mg); data on file
[23] = intravenous 30 mg, healthy subjects
[24] = single oral dose of edoxaban 60 mg, healthy subjects, mean ± SD
[25] = 60 mg daily for 4 days, day 1 and day 4
[26] = coadministration of amiodarone, following 3 days of once daily dosing
[27] = coadministration of cyclosporine
[28] = coadministration of dronedarone
[29] = coadministration of erythromycin
[30] = coadministration of high-dose aspirin (325 mg)
[31] = coadministration of ketoconazole
[32] = coadministration of oral quinidine
[33] = coadministration of sustained-release verapamil
[34] = rifampin after 7 days of dosing

CN1CCc2nc(C(=O)N[C@@H]3C[C@@H](C(=O)N(C)C)CC[C@@H]3NC(=O)C(=O)Nc3ccc(Cl)cn3)sc2C1 [edoxaban]
effect of age, sex and race on edoxaban pharmacokinetics ([1]; after renal function is taken into account): do not affect | contribution of any individual metabolic pathway to total clearance [1]: ≤ 10% | inter- and intra-subject variability in clearance and volume of distribution [1]: < 30% | metabolism by CYP3A4 (CYP3A4/5) (share of clearance) [1]: < 10% | renal clearance as share of total clearance [1]: approximately 50% | Renal clearance ([1]; healthy subjects): about 10.7 ± 3.00 L/h | metabolism by CES1 (share of clearance) ([1]; human-specific metabolite): < 10% | CL total body clearance [1, 23]: approximately 22 L/h | V ss steady-state volume of distribution [1, 23]: approximately 107 L | V z volume of distribution based on the terminal phase [1, 23]: 205 ± 64.8 L | CL total body clearance ([1]; intravenous 30 mg, healthy subjects, listed as Edoxaban): 21.8 ± 3.03 L/h | dose–exposure relationship ([1]; healthy subjects): approximately dose proportional; also recorded: slightly less-than-dose-proportional | dose–exposure relationship ([1]; healthy subjects, listed as Edoxaban): generally linear and dose-proportional | terminal elimination half-life ([1]; oral, healthy subjects): 10 to 14 h | CLR (oral) ([1]; single oral dose of edoxaban 60 mg, healthy subjects, N = 32): 9.95 ± 2.32^a L/h | AUC∞ (oral) [1, 24]: 1766 ± 435.3 ng·h/mL | C max (oral) [1, 24]: 256 ± 87.7 ng/mL | t ½ (oral) [1, 24]: 11.5 ± 5.63 h | t max (oral) ([1]; single oral dose of edoxaban 60 mg, healthy subjects, median [minimum–maximum]): 1.02 [0.500–3.00] h | partition in blood [2]: 46% | solubility [3]: pH dependent | permeability in Caco-2 cells (Caco-2 cells): poor | substrate of the efflux transporter P-gp (P-glycoprotein (P-gp)): is a substrate | substrate of OATP1B1 (OATP1B1 [4]): is not a substrate | substrate of OAT1 (OAT1): is not a substrate | substrate of OCT2 (OCT2 [5]): is not a substrate | IC50 (CYPs): ≥ 100 µM | IC50 (P-gp): ≥ 50 µM | IC50 (OATP1B1 [6]): ≥ 50 µM | IC50 (OCT2 [7]): ≥ 100 µM | total radioactive dose detected in faeces ([8]; healthy subjects): 62% | total radioactive dose detected in urine ([8]; healthy subjects): 35% | unchanged edoxaban in faeces, share of total administered radioactive dose [8]: 49% | unchanged edoxaban in urine, share of total administered radioactive dose [8]: 24% | increase of mean peak exposure (Cmax) in the fed state vs fasted state ([9]; 60 mg single dose): 6–22% | increase of total exposure with food ([9]; 60 mg single dose): 12–15% | effect of food on total exposure [9]: Coadministration with food does not affect total edoxaban exposure | fraction absorbed in the colon [10]: approximately 13% | effect of mild or moderate hepatic impairment on peak or total exposure [11]: did not significantly impact | effect on PT, INR, aPTT or intrinsic FX activity ([12]; coadministration of low-dose aspirin (100 mg)): did not significantly affect | effect on anti-FXa when both drugs coadministered ([12]; edoxaban 60 mg and subcutaneous enoxaparin 1 mg/kg): additive | time to peak elevation of PT and aPTT [13, 25]: ≤ 2 h | time to return of PT and aPTT to near-baseline levels [13, 25]: ≤ 24 h | time to peak effects on anticoagulation markers (anti-FXa, PT, aPTT) ([13]; oral administration): 1 to 2 h | time to maximum effect on plasma anti-FXa activity ([13]; single dose 10–150 mg, healthy subjects): 1 to 2 h | ex vivo thrombus formation under high and low shear rates [14]: markedly reduced | rebound effect following cessation of dosing [15]: no evidence of a rebound effect | pharmacokinetic parameters vs continual treatment with edoxaban ([16]; 60 mg on day 4 after rivaroxaban 20 mg once daily for 3 days): similar | pharmacokinetic parameters vs 4 days of continual edoxaban ([16]; 60 mg single dose after dabigatran 150 mg twice daily for 3 days): similar | anticoagulant effects (anti-FXa, PT, aPTT, ETP) vs 4 days of continual edoxaban ([16]; after switching from rivaroxaban): similar | PT and anti-FXa activities, switched from dabigatran vs continuous edoxaban [16]: not different | aPTT and ETP after switching from dabigatran [16]: carryover effect | effect of warfarin on the pharmacokinetics of edoxaban ([16]; switching 24 h after cessation of warfarin): no effect | increase in peak exposure to single doses of edoxaban [17, 26]: 66% | increase in total exposure to single doses of edoxaban [17, 26]: 40% | effect on peak or total exposure to edoxaban ([17]; coadministration of atorvastatin): no effect | increase in peak exposure to single doses of edoxaban [17, 27]: 74% | increase in total exposure to single doses of edoxaban [17, 27]: 73% | increase in edoxaban Cmax ([17]; coadministration of digoxin, steady state): 16% | effect on total exposure or renal clearance at steady state ([17]; coadministration of digoxin): no significant effect | increase in peak exposure to single doses of edoxaban [17, 28]: 46% | increase in total exposure to single doses of edoxaban [17, 28]: 85% | increase in peak exposure to single doses of edoxaban [17, 29]: 68% | increase in total exposure to single doses of edoxaban [17, 29]: 85% | increase in steady-state peak exposure to edoxaban [17, 30]: 34% | increase in steady-state total exposure to edoxaban [17, 30]: 30% | increase in single-dose peak exposure to edoxaban [17, 31]: 89% | increase in single-dose total exposure to edoxaban [17, 31]: 87% | effect on peak and total exposure to edoxaban ([17]; coadministration of naproxen): no effect | increase in 24-h exposure to orally dosed edoxaban [17, 32]: 77% | increase in single-dose peak exposure to orally dosed edoxaban [17, 32]: 85% | increase in 24-h exposure to single doses of edoxaban [17, 33]: 53% | increase in peak exposure to single doses of edoxaban [17, 33]: 53% | increase in exposure to edoxaban (Cmax and AUC) ([17]; concomitant P-gp inhibitor use): less than twofold | decrease in peak exposure to edoxaban ([17]; edoxaban 2 h after esomeprazole at steady state): about 33% | effect on peak and total exposure to edoxaban ([17]; enoxaparin dosed concomitantly or 12 h apart): did not affect | increase in Cmax of edoxaban ([17]; esomeprazole, 2-h stagger at steady state, 90 % CI 57.98–78.07): approximately 33% | effect on total exposure to edoxaban ([17]; esomeprazole, 2-h stagger at steady state, 90 % CI within 80–125 %): no significant effect | effect on peak and total exposure to edoxaban ([17]; esomeprazole, concurrent dosing): no significant effect | increase in peak exposure to intravenous edoxaban ([17]; orally administered quinidine): 7.5% | increase in total exposure to intravenous edoxaban ([17]; orally administered quinidine): 35% | decrease in total edoxaban exposure [17, 34]: about 34% | effect on peak edoxaban exposure [17, 34]: no effect | effect on prolongation of bleeding time ([18]; coadministration of edoxaban and low-dose (100 mg) or high-dose aspirin (325 mg)): additive effect | increase in bleeding time vs naproxen alone ([18]; coadministration of edoxaban with naproxen, 90 % CI 98.1–151.0): 22% | change in QTcI value, one subject ([19]; 90 mg dose group, 10 h postdose): 32 ms | upper bounds of the 95 % one-sided CIs for placebo-corrected QTcI change from time-matched baseline ([19]; 90 and 180 mg, any time point): ≤ 4 ms | effect on cardiac repolarization ([19]; 90 and 180 mg): did not have a threshold pharmacological effect | changes in QTcI, all except one subject ([19]; all time points): below 30 ms | absolute value of QTcI ([19]; any subject, 90 and 180 mg): ≤ 450 ms | effect of ABCB1 genotype (C3435T) on pharmacokinetics [20]: no effect | induction of gene expression of CYP1A2 (CYP1A2): do not induce | induction of gene expression of CYP3A4 (CYP3A4): do not induce | induction of gene expression of MDR1 (P-gp) [21]: do not induce | reduction of renal clearance of edoxaban [22]: 17%
